Molecules are shown by their SMILES.

In patent US20170240556A1, “BIFLUORODIOXALANE-AMINO-BENZIMIDAZOLE KINASE INHIBITORS FOR THE TREATMENT OF CANCER, AUTOIMMUNEINFLAMMATION AND CNS DISORDERS” (4SC DISCOVERY GMBH, priority 2012, published 2017) one finds IC50 data, which are given here for twelve compounds.

The target in test [1] is Casein kinase 1 epsilon (CSKN1E) (Homo sapiens, UniProt P49674). The test is described as follows: Casein kinase assay, CK1 epsilon. The class given is biochemical. The note with it: recombinant CSKN1E 30 nM, ATP 10 μM.
The subject of test [2] is Hedgehog signaling pathway. The experiment in a line: Hedgehog reporter assay (Gli Reporter - NIH3T3 Cell Line). The class given is cell-based. The note with it: Mus musculus; Gli reporter NIH3T3 cells, murine SHH stimulation, 24 h; read-out: HH Assay. How it is done: In order to investigate the potency of test compounds to inhibit the Hedgehog signaling pathway, a Gli-Reporter assay was performed.
The “Gli Reporter—NIH3T3 Cell Line” contains the firefly luciferase gene under the control of Gli responsive elements stably integrated into murine NIH3T3 cells (cells purchased from Amsbio). The luciferase expression correlates with activation of the hedgehog signaling pathway. This cell line is validated for its response to stimulation with murine Sonic Hedgehog and to treatment with inhibitors of the hedgehog signaling pathway. A multiplexed viability assay was used to discriminate inhibition on the pathway activity from cell toxicity.
Growth Medium: DMEM, 10% Calf Serum, 1% Penicillin/Streptomycin 500 μg/ml Geneticin (G418 Stock 50 mg/ml).
25.000 cells per well were seeded into a white 96 well plate in 100 μl growth medium and incubated over night at 37° C. and 5% CO2. After removing the supernatant the test compounds and controls (known GLI inhibitor, e.g. GANT-61) were added in different concentrations in a final volume of 45 μl and incubated for 1 h at 37° C. and 5% CO2. For the stimulation of the Hedgehog pathway 5 μl of 10 μg/ml concentrated murine sonic hedgehog (SHH) was added to the cells. A final concentration of 1 μg/ml mSHH and 0.1% DMSO was reached per well. After incubation for 24 h at 37° C. the cells were investigated for viability and reporter activity.
Viability: For the determination of the viability of the treated cells the CellTiter-Fluor Kit from Promega was used. Essentially, only proteases of viable cells are able to cleave the cell-permeant substrate Gly-Phe-AFCoumarin (GF-AFC). By this cleavage the fluorescent AFC is set free and can be detected in a fluorescence reader. For this assay 10 μl of GF-AFC substrate (CellTiter-Fluor, Promega #G6082) was diluted in 2 ml assay buffer from the CellTiter-Fluor Kit and 10 μl of this dilution was added per well to the cells and incubated for 30 min at 37° C. The fluorescence was measured with excitation at 380-400 nm and emission at 505 nm.
Reporter activity: The firefly luciferase reporter activity was detected with the ONE-Glo™ Luciferase Assay System from Promega. For this assay 50 μl ONE-Glo luciferase reagent (Promega #E6120, contains cell lysis buffer and luciferin) was added to each well and incubated at room temperature for 5 min. Luminescence was detected in a plate reader and served as a degree for reporter activity.
On the technique in general: A reporter such as luciferase makes a cellular process visible.

The target in test [3] is Casein kinase 1 delta (CSKN1D) (Homo sapiens, UniProt P48730). The test is described as follows: Casein kinase assay, CK1 delta. It is filed as biochemical. The note with it: recombinant CSKN1D 5 nM, ATP 10 μM.
Sequence of Casein kinase 1 delta (CSKN1D) (P48730 whole entry): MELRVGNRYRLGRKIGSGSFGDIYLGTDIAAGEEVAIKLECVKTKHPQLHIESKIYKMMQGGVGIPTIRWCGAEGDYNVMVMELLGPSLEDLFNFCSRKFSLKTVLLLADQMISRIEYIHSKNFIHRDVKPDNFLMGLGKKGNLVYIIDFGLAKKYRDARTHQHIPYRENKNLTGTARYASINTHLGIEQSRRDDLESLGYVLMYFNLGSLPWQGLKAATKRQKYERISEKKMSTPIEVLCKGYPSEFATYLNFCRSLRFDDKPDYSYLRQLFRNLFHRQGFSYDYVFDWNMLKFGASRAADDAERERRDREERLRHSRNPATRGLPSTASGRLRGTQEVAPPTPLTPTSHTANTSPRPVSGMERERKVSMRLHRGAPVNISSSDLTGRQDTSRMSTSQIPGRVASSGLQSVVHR

Sequence of Casein kinase 1 epsilon (CSKN1E) (P49674 whole entry): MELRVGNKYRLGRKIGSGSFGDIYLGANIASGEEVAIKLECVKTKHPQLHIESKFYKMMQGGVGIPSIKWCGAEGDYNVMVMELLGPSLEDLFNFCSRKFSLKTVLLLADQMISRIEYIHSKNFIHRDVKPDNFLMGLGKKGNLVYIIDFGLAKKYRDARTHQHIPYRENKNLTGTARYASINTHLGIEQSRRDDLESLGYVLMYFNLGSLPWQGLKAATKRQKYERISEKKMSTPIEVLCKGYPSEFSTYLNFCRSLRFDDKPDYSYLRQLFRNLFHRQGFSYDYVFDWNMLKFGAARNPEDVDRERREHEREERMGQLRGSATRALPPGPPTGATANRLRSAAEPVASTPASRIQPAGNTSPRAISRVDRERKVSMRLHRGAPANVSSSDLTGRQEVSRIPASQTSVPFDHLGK

With `O=C(Nc1nc2cc3c(cc2[nH]1)OC(F)(F)O3)c1csc(-c2ccc3c(c2)CCO3)n1` [Compound 3, N-(2,2-difluoro-5H-[1,3]dioxolo[4′,5′:4,5]benzo[1,2-d]imidazol-6-yl)-2-(2,3-dihydrobenzofuran-5-yl)thiazole-4-carboxamide], the values for the IC50 in test [1], in test [2] and in test [3] were 200 to 1000 nM, not above 500 nM and less than 200 nM, respectively.

Consider `COc1cccc(CC(=O)Nc2nc3cc4c(cc3[nH]2)OC(F)(F)O4)c1` [Compound 3B, N-(2,2-difluoro-5H-[1,3]dioxolo[4′,5′:4,5]benzo[1,2-d]imidazol-6-yl)-2-(3-methoxyphenyl)acetamide], for which the figures for the IC50 in test [1], in test [2] and in test [3] were less than 200 nM, 500 to 1000 nM and less than 200 nM, respectively.

As for `O=C(Nc1nc2cc3c(cc2[nH]1)OC(F)(F)O3)c1cccc(-c2cc[nH]n2)c1` [Compound 5B, N-(2,2-difluoro-5H-[1,3]dioxolo[4′,5′:4,5]benzo[1,2-d]imidazol-6-yl)-3-(1H-pyrazol-3-yl)benzamide], the IC50 was 1000 to 15000 nM in test [2] and less than 200 nM in test [3].

Regarding `O=C(Nc1nc2cc3c(cc2[nH]1)OC(F)(F)O3)c1csc(-c2ccco2)n1` [Compound 6B, N-(2,2-difluoro-5H-[1,3]dioxolo[4′,5′:4,5]benzo[1,2-d]imidazol-6-yl)-2-(furan-2-yl)thiazole-4-carboxamide], the IC50 in test [1] is less than 200 nM; in test [2], 500 to 1000 nM; in test [3], less than 200 nM.

As for `Nc1nccnc1C(=O)Nc1nc2cc3c(cc2[nH]1)OC(F)(F)O3` [Compound 7, 3-amino-N-(2,2-difluoro-5H-[1,3]dioxolo[4′,5′:4,5]benzo[1,2-d]imidazol-6-yl)pyrazine-2-carboxamide], the IC50 in test [1] is more than 1000 nM; in test [2], 1000 to 15000 nM; in test [3] it was more than 1000 nM.

As for `CN(C)c1cncc(C(=O)Nc2nc3cc4c(cc3[nH]2)OC(F)(F)O4)c1` [Compound 7B, N-(2,2-difluoro-5H-[1,3]dioxolo[4′,5′:4,5]benzo[1,2-d]imidazol-6-yl)-5-(dimethylamino)nicotinamide], the values for the IC50 in test [2] and in test [3] were 1000 to 15000 nM and less than 200 nM, respectively.

In the case of `O=C(Nc1nc2cc3c(cc2[nH]1)OC(F)(F)O3)c1csc(-c2cccs2)n1` [Compound 11B, N-(2,2-difluoro-5H-[1,3]dioxolo[4′,5′:4,5]benzo[1,2-d]imidazol-6-yl)-2-(thiophen-2-yl)thiazole-4-carboxamide], the results for the IC50 in test [2] and in test [3] were 1000 to 15000 nM and less than 200 nM, respectively.

On to `O=C(Nc1nc2cc3c(cc2[nH]1)OC(F)(F)O3)c1csc(-c2ccoc2)n1` [Compound 16B, N-(2,2-difluoro-5H-[1,3]dioxolo[4′,5′:4,5]benzo[1,2-d]imidazol-6-yl)-2-(furan-3-yl)thiazole-4-carboxamide], for which the results for the IC50 in test [2] and in test [3] were 1000 to 15000 nM and less than 200 nM, respectively.

As for `O=C(Nc1nc2cc3c(cc2[nH]1)OC(F)(F)O3)c1cnccn1` [Compound 27, N-(2,2-difluoro-5H-[1,3]dioxolo[4′,5′:4,5]benzo[1,2-d]imidazol-6-yl)pyrazine-2-carboxamide], the IC50 is more than 1000 nM in test [1], 1000 to 15000 nM in test [2] and more than 1000 nM in test [3].

Turning to `CN(C)c1cccc(C(=O)Nc2nc3cc4c(cc3[nH]2)OC(F)(F)O4)c1` [Compound 102, N-(2,2-difluoro-5H-[1,3]dioxolo[4′,5′:4,5]benzo[1,2-d]imidazol-6-yl)-3-(dimethylamino)benzamide], the IC50 in test [2] was 500 to 1000 nM; in test [3], less than 200 nM.

As for `O=C(Nc1nc2cc3c(cc2[nH]1)OC(F)(F)O3)c1cccc(N2CCCC2)c1` [Compound 122, N-(2,2-difluoro-5H-[1,3]dioxolo[4′,5′:4,5]benzo[1,2-d]imidazol-6-yl)-3-(pyrrolidin-1-yl)benzamide], the IC50 in test [2] was not above 500 nM; in test [3], less than 200 nM.

As for `CN(C)c1cc(C(=O)Nc2nc3cc4c(cc3[nH]2)OC(F)(F)O4)ccn1` [Compound 125, N-(2,2-difluoro-5H-[1,3]dioxolo[4′,5′:4,5]benzo[1,2-d]imidazol-6-yl)-2-(dimethylamino)isonicotinamide], the IC50 in test [2] was 1000 to 15000 nM; in test [3], less than 200 nM.
